Legend:
CGNH-89 cells [1] = assay: ATP-induced [Ca2+]i increase in CGNH-89 cells; type: cell-based, human; details: 25 μM ATP; control cells, n=50
Procedure: The present inventors examined whether CGNH-89 cells expressing GluR2 (R) could increase [Ca^2+]i to a similar extent as control cells in response to ATP, which is known to mediate Ca^2+ signaling in glial cells (J. Neurosci., 18, 8794-8804, 1998).
(§1) Cells were loaded with fura 2-AM (Dojin) at room temperature for 40 min. Fluorescence images were obtained at an excitation wavelength of 340 and 380 nm using the Argus/HiSCA system (Hamamatsu Photonics). The 340/380 nm fluorescence ratio was converted to [Ca^2+]i as described previously (Cell, 88, 49-55, 1997).

CGNH-89 cells [2] = assay: Cell morphology of CGNH-89 glioblastoma cells; type: cell-based, human
CGNH-89 cells [3] = assay: TUNEL apoptotic index in CGNH-89 cells; type: cell-based, human; details: 10 μM YM872, 2 days, n=4
Text: The present inventors next estimated the apoptotic index in CGNH-89 cells expressing GluR2 (R) using the terminal deoxynucleotide transferase (TdT)-mediated dUTP nick end labeling (TUNEL) method (Science, 267, 1445-1449, 1995), and compared this value with that in cells infected with only AxCALNLGluR2 (control). The apoptotic index was defined as the number of TUNEL-positive cells divided by the total number of propidium iodine (PI)-positive nuclei per microscopic field. To obtain the mean value in each culture dish, 10 to 15 randomly chosen fields were sampled.
(§2) For TUNEL and cell proliferation assays, cells were plated at a density of 2×10^4/well in Lab-Tek 4-well glass slides filled with the standard culture medium. At 6 hr. after plating, the medium was replaced with glutamate-free medium and cells were infected with the adenoviruses. At 48 hr. after plating, glutamate (100 μM) was added to the medium and cells were fixed at 5 days postinfection. TUNEL assay was performed with an In Situ Cell Death Detection kit (MBL). Cell proliferation assay was performed with anti-Ki-67 monoclonal antibody (Dako) staining indices. Migration assay was performed in a transwell chamber (8 μm pore size) (Corning Corstar Corp.).

[4] = test system: tumor produced by grafting CGNH-89 cells into the subcutaneous tissue; assay: Subcutaneous CGNH-89 tumor growth in nude mice; type: in vivo
Text: To further estimate quantitatively whether manipulation of Ca^2+-permeable AMPARs alters tumor growth in vivo, the present inventors examined effects of GluR2 and GluR2 (Q) expression and/or application of the AMPAR antagonist YM872 on the growth of tumor produced by grafting CGNH-89 cells into the subcutaneous tissue of nude mice (FIG. 6)-(FIGS. 6a and b).
Proliferation of tumor cells expressing GluR2 (Q) was inhibited by application of YM872 (FIGS. 6g, h and i).
In addition, the effect of adenoviral-mediated expression of GluR2 (R) and GluR2 (Q) on tumor growth was evaluated quantitatively in subcutaneous tumors with or without application of YM872, an antagonist for AMPA-type glutamate receptors. Cell suspensions (1×10^7/100 μl) were injected subcutaneously in the flank of nude mice 5˜6 weeks old (body weight, 18˜20 g). Adenoviruses ([…], diluted in a total of 100 μl of PBS) were administered intratumorally once 5 days after tumor inoculation with a 27-gauge needle. AxCALNLGluR2 without AxCANCre was administered for control.
YM872, a kind gift from Yamanouchi Pharmaceutical Company, was dissolved in PBS. […] In this series of experiments, 100 mg/kg YM872 was used. PBS (100 μl) was administered intraperitoneally for control. Tumor volume was calculated according to the formula (length×width^2 )/2. At the end of each experiment, tumor tissues were subjected to histological analysis.

[5] = biological target: T1, Ca^2+-permeable AMPARs in glioblastoma cells in primary culture (Homo sapiens, UniProt P42261); assay: AMPA-induced [Ca2+]i changes (fura-2 AM) in primary cultured glioblastoma cells; type: cell-based
T1 construct: To examine functional expression of Ca^2+-permeable AMPARs in glioblastoma cells in primary culture; endogenous in cells; host or cells: primary (explant) cultures of glioblastoma multiforme surgical samples
T1 sequence (P42261 19-906): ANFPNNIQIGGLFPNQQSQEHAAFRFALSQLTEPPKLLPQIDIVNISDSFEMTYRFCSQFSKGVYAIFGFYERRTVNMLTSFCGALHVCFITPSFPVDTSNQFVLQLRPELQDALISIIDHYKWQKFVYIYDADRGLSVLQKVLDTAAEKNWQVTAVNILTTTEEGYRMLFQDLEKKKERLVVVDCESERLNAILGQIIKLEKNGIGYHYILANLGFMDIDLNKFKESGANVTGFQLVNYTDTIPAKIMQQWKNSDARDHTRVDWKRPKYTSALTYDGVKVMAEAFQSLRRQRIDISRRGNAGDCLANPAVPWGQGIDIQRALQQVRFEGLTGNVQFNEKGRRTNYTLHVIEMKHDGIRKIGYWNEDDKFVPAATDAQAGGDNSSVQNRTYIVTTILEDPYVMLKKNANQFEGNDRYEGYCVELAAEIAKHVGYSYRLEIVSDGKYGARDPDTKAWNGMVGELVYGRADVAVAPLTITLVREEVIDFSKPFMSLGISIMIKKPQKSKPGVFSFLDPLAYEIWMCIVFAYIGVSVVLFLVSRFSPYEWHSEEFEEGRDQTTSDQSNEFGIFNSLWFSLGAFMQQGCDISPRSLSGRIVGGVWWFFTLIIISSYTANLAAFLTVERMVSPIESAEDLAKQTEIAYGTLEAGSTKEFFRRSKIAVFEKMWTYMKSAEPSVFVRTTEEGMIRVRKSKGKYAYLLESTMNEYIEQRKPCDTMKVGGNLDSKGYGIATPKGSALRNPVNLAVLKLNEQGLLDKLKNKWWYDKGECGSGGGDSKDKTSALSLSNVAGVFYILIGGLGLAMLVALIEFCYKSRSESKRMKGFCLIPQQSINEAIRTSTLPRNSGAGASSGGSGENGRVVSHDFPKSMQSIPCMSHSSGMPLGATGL
Procedure: as §1

[6] = test system: CGNH-NM, MRCH-92 and U87 MG; assay: Other 3 cell lines expressing Ca2+-permeable AMPARs: morphology, apoptotic index, Ki-67 index, migration; type: cell-based, human
CGNH-89 cells [7] = assay: Ki-67 staining index (proliferation activity) in CGNH-89 cells; type: cell-based, human; details: 10 μM YM872, 2 days, n=4
Procedure: There were no significant changes in these 2 indices between cells expressing GluR2 (Q) and overexpressing GluR1.
as §2, with “At 48 hr. after plating, glutamate (100 μM) was added to the medium and cells were fixed at 5 days postinfection.” left out

tumor cells = assay: Tumor cells cultured in glutamate-free medium, glutamate add-back; type: cell-based, human; details: addition of 100 ˜M glutamate after 4˜5 days in glutamate-free medium with 10% dialyzed FCS
Procedure: The endogenous agonist for AMPARs is glutamate. The culture medium in this experiment was supplemented with fetal calf serum (FCS) and contained up to 100 μM glutamate. The presence of glutamate was essential for maintenance of fusiform morphology as well as proliferation of the tumor cells. When the cells were cultured in glutamate-free medium supplemented with 10% dialyzed FCS for 4˜5 days, they became polygonal in shape and the number of apoptotic cells increased. These changes were restored by addition of 100 ˜M glutamate. An obvious question is whether a sufficient concentration of glutamate to activate Ca^2+-permeable AMPARs is actually supplied to proliferating and migrating tumor cells in the brain. It has been shown that implanted glioma cells continue to secrete glutamate, resulting in a detectable elevation of extracellular glutamate, and that gliomas with high glutamate release have a distinct growth advantage (Nature Med., 7, 1010-1015, 2001).

[8] = test system: Ca^2+-permeable AMPARs in CGNH-89 cells; assay: AMPA-induced [Ca2+]i changes (fura-2 AM) in CGNH-89 cells after adenoviral gene transfer; type: cell-based, human; details: 200 μM AMPA + 100 μM CTZ
Procedure: In FIGS. 3p˜x, the present inventors confirmed changes in Ca^2+ permeability induced by adenoviral-mediated introduction of GluR2 (R) or GluR2 (Q) in CGNH-89 cells. […] The same treatment had no effect on [Ca^2+]i in cells expressing GluR2 (FIGS. 3s, t and u) in 4 culture dishes, whereas it caused a marked increase in [Ca^2+]i from 77±21 to 1185±240 nM (n=40) in cells expressing GluR2 (Q) in 2 culture dishes (FIGS. 3v, w and x).
(2) AxCANCre and AxCAGFP: recombinant adenoviruses for expression of Cre recombinase and EGFP (Clontech), respectively. Cells were infected at a multiplicity of infection (MOI) of 5 with each of the recombinant adenoviruses 2˜5 days before experiments.
as §1

[9] = 22 days after tumor inoculation
[10] = other 3 cell lines (CGNH-NM, MRCH-92, U87 MG)

Nc1ncnc2c1ncn2[C@@H]1O[C@H](COP(=O)(O)OP(=O)(O)OP(=O)(O)O)[C@@H](O)[C@H]1O [ATP]
[Ca^2+]i after application of ATP (CGNH-89 cells [1]): 1574 ± 161 nM

O.O=C(O)Cn1c(=O)c(=O)[nH]c2cc([N+](=O)[O-])c(-n3ccnc3)cc21 [YM872, [2,3-dioxo-7-(1H-imidazol-1-yl)-6-nitro-1,2,3,4-tetrahydroquinoxalin-1-yl]acetic acid monohydrate]
change in cell morphology (CGNH-89 cells [2]; 10 μM YM872 for 2 days): retraction of cytoplasmic processes, enlarged and flattened somata
apoptotic index (CGNH-89 cells [3]): 18.0±2.5%
apoptotic cells in tumor tissues (histology) [4, 9]: a large number of apoptotic cells
mitotic cells in tumor tissues (histology) [4, 9]: scarcely detected
further effect on tumor expressing GulR2 ([4]; YM872 intraperitoneal, 100 mg/kg): no further inhibitory effects
size of tumor ([4]; YM872 intraperitoneal, 100 mg/kg daily, vs PBS, n=12): significantly reduced
growth of tumor expressing GluR2 (Q) ([4]; YM872 intraperitoneal, 100 mg/kg, n=12): inhibited
proliferation of tumor cells expressing GluR2 (Q) (histology) ([4]; application of YM872): inhibited
inhibition of tumor growth, dose dependence ([4]; daily intraperitoneal 10, 50 and 100 mg/kg for 2 weeks): Dose-dependent inhibition
tumor proliferation in cells expressing GluR2 (histology) ([4]; treatment with YM872): no further inhibition
effect on AMPA-induced increase in [Ca^2+]i ([5]; 10 μM YM872): selectively abolished
Ki-67 staining index [6, 10]: decreased
apoptotic index [6, 10]: increased
cell migration ([6]; other 3 cell lines expressing Ca^2+-permeable AMPARs): inhibited the cell migration
Ki-67 staining index (CGNH-89 cells [7]): < 0.1%

NS(=O)(=O)c1cccc2c1c([N+](=O)[O-])cc1nc(O)c(O)nc12 [NBQX, 2,3-dihydroxy-6-nitro-7-sulfamoyl-benzo(F)-quinoxaline]
change in cell morphology (CGNH-89 cells [2]; 20 μM NBQX for 2 days): retraction of cytoplasmic processes, enlarged and flattened somata

N[C@@H](CCC(=O)O)C(=O)O [glutamate]
polygonal shape and increased apoptotic cells caused by glutamate-free medium (tumor cells): restored

[K+] [K^+]
effect on [Ca^2+]i ([5]; 100 mM K^+): did not increase

Cc1onc(O)c1CC(N)C(=O)O (stereo not drawn) [AMPA, α-amino-3-hydroxy-5-methyl-4-isoxazole propionic acid]
control cells in which [Ca^2+]i increased ([8]; 10 culture dishes): 52±14%
[Ca^2+]i during application of AMPA together with CTZ ([8]; control CGNH-89 cells, n=350): 275 ± 50 nM

— patent US20060128645A1, “Inhibition of proliferation and infiltration of brain tumor cells caused by expression of ampa-type glutamate receptor subunit” (priority 2002, published 2006)
